In patent US12668594B2, “TYK2 inhibitors and uses thereof” (Sudo Biosciences Limited, priority 2020, dated 2026):
pIC50: −log10 of the molar value.

Columns and labels:
[1] = molecular target: T1, TYK2 (Homo sapiens, UniProt P29597); assay: HEK-Blue IFNα/β reporter assay (SEAP) for TYK2 pseudokinase inhibition; assay type: cell-based; settings: HEK-Blue IFNα/β cells, 1 ng/mL human recombinant IFNα
Protocol: (§1) HEK-Blue™ IL-23 and IFNα/β cells with a stably-integrated cytokine receptor and STAT3 or STAT1 express STAT-inducible secreted embryonic alkaline phosphatase (SEAP) reporter gene upon cytokine stimulation. These cells are plated in DMVEM (Gibco) containing 10% heat-inactivated FBS (Gibco) and 100 U/mL PenStrep (Gibco) at 37° C. under […] conditions for 20-22 hours. The cells are then pretreated with serially diluted test compounds for 60 min prior to stimulation with either 10 ng/mL human recombinant IL-23 (Miltenyl Biotech) or 1 ng/mL human recombinant IFNα (InvivoGen) for 22-24 hours for IL-23 or 16-18 h for IFNα. SEAP induction is measured using the QUANTI Blue™ Solution (InvivoGen) according to the manufacturer's instructions. Inhibition data are calculated by comparison to no inhibitor control wells for 000 inhibition and non-stimulated control wells for 10000 inhibition. Dose response curves are generated to determine the concentration required to inhibit 5000 of cellular response (IC50) as derived by non-linear regression analysis.

[2] = molecular target: T1, TYK2; assay: HEK-Blue IL-23 reporter assay (SEAP) for TYK2 pseudokinase inhibition; assay type: cell-based; parameters: HEK-Blue™ IL-23 and IFNα/β cells with a stably-integrated cytokine receptor and STAT3 or STAT1; host or cells: HEK-Blue IL-23 / HEK-Blue IFNα/β cells (HEK293 background); settings: HEK-Blue IL-23 cells, 10 ng/mL human recombinant IL-23, SEAP reporter; read-out: IL23 IC50
Protocol: as §1

T1 sequence (P29597 whole entry): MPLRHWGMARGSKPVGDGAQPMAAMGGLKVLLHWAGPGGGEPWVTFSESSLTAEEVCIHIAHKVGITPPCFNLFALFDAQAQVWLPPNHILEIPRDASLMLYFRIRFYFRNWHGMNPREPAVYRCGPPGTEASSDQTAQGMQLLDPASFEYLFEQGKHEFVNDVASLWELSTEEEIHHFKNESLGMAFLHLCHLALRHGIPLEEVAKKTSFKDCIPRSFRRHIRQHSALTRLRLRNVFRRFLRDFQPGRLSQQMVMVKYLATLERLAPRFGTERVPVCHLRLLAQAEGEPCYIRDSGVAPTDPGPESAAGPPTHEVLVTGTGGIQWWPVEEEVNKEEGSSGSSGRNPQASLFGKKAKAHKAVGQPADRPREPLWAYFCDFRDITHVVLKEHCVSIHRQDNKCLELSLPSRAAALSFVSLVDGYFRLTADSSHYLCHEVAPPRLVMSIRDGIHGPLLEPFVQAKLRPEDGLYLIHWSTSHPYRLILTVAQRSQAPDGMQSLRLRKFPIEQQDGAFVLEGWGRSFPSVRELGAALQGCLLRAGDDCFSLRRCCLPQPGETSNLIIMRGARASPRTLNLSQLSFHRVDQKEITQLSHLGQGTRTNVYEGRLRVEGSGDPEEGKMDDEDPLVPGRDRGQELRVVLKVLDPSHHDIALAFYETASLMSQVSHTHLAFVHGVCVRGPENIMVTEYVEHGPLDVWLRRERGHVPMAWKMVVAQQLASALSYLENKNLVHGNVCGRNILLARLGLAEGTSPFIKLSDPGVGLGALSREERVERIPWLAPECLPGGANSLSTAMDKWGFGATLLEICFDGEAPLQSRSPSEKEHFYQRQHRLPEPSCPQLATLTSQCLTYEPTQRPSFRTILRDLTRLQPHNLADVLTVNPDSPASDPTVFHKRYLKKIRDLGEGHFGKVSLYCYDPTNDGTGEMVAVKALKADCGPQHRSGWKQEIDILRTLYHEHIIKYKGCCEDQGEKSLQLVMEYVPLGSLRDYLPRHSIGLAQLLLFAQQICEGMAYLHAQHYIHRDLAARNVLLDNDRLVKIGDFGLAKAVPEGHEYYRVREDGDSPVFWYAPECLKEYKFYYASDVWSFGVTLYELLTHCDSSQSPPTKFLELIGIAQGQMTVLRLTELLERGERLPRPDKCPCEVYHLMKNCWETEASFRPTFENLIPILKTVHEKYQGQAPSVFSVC

Row | pIC50 [1] | pIC50 [2] | SMILES
1 | > 5.00 | > 5.00 | O=C(Nc1cc2c(cn1)c(=O)[nH]n2-c1cccc(C(F)(F)F)c1)C1CC1 [Compound I-58, N-(3-oxo-1-(3-(trifluoromethyl)phenyl)-2,3-dihydro-1H-pyrazolo[4,3-c]pyridin-6-yl)cyclopropanecarboxamide]
2 | < 4.05 | 4.52 to 5.00 | COc1c(Cl)cccc1-n1[nH]c(=O)c2cnc(Nc3ccc(F)cn3)cc21 [Compound I-102, 1-(3-chloro-2-methoxyphenyl)-6-((5-fluoropyridin-2-yl)amino)-1,2-dihydro-3H-pyrazolo[4,3-c]pyridin-3-one]
3 | > 5.00 | > 5.00 | COC(=O)c1ccc(-n2[nH]c(=O)c3cnc(Nc4ccc(F)cn4)cc32)cc1 [Compound I-75, methyl 4-(6-((5-fluoropyridin-2-yl)amino)-3-oxo-2,3-dihydro-1H-pyrazolo[4,3-c]pyridin-1-yl)benzoate]
4 | > 5.00 | > 5.00 | N#Cc1ccc(-n2[nH]c(=O)c3cnc(Nc4ccc(F)cn4)cc32)cc1C(F)(F)F [Compound I-92, 4-(6-((5-fluoropyridin-2-yl)amino)-3-oxo-2,3-dihydro-1H-pyrazolo[4,3-c]pyridin-1-yl)-2-(trifluoromethyl)benzonitrile]
5 | > 5.00 | > 5.00 | Cc1cc(Nc2cc3c(cn2)c(=O)[nH]n3-c2ccccc2)ncc1F [Compound I-6, 6-((5-fluoro-4-methylpyridin-2-yl)amino)-1-phenyl-1,2-dihydro-3H-pyrazolo[4,3-c]pyridin-3-one]
6 | > 5.00 | > 5.00 | O=C(Nc1cc2c(cn1)c(=O)[nH]n2-c1ccc(C(F)(F)F)cc1)C1CC1 [Compound I-68, N-(3-oxo-1-(4-(trifluoromethyl)phenyl)-2,3-dihydro-1H-pyrazolo[4,3-c]pyridin-6-yl)cyclopropanecarboxamide]
7 | < 4.05 | < 4.05 | COc1c(Cl)cccc1-n1[nH]c(=O)c2cnc(Nc3cc(C)nc(C)n3)cc21 [Compound I-101, 1-(3-chloro-2-methoxyphenyl)-6-((2,6-dimethylpyrimidin-4-yl)amino)-1,2-dihydro-3H-pyrazolo[4,3-c]pyridin-3-one]
8 | 4.52 to 5.00 | > 5.00 | Cn1ccc(Nc2cc3c(cn2)c(=O)[nH]n3-c2ccccc2)n1 [Compound I-4, 6-((1-methyl-1H-pyrazol-3-yl)amino)-1-phenyl-1,2-dihydro-3H-pyrazolo[4,3-c]pyridin-3-one]
9 | < 4.05 | < 4.05 | COc1c(-n2[nH]c(=O)c3cnc(Nc4cc(C)nc(C)n4)cc32)cccc1C(F)(F)F [Compound I-103, 6-((2,6-dimethylpyrimidin-4-yl)amino)-1-(2-methoxy-3-(trifluoromethyl)phenyl)-1,2-dihydro-3H-pyrazolo[4,3-c]pyridin-3-one]
10 | < 4.05 | < 4.05 | Cc1cc(Nc2cc3c(cn2)c(=O)[nH]n3-c2ccc(Cl)c(Cl)c2)nc(C)n1 [Compound I-85, 1-(3,4-dichlorophenyl)-6-((2,6-dimethylpyrimidin-4-yl)amino)-1,2-dihydro-3H-pyrazolo[4,3-c]pyridin-3-one]
11 | 4.05 to 4.52 | 4.52 to 5.00 | COCCC(=O)Nc1cc2c(cn1)c(=O)[nH]n2-c1ccccc1 [Compound I-7, 3-methoxy-N-(3-oxo-1-phenyl-2,3-dihydro-1H-pyrazolo[4,3-c]pyridin-6-yl)propanamide]
12 | < 4.05 | 4.05 to 4.52 | COc1ccccc1-n1[nH]c(=O)c2cnc(Nc3ccc(F)cn3)cc21 [Compound I-16, 6-((5-fluoropyridin-2-yl)amino)-1-(2-methoxyphenyl)-1,2-dihydro-3H-pyrazolo[4,3-c]pyridin-3-one]

The next lines start with the molecule.

Row | SMILES | pIC50 [1] | pIC50 [2]
13 | O=C(Nc1cc2c(cn1)c(=O)[nH]n2-c1cccc(OC(F)(F)F)c1)C1CC1 [Compound I-55, N-(3-oxo-1-(3-(trifluoromethoxy)phenyl)-2,3-dihydro-1H-pyrazolo[4,3-c]pyridin-6-yl)cyclopropanecarboxamide] | > 5.00 | > 5.00
14 | Cc1cc(Nc2cc3c(cn2)c(=O)[nH]n3-c2ccc(C#N)c(C(F)(F)F)c2)nc(C)n1 [Compound I-91, 4-(6-((2,6-dimethylpyrimidin-4-yl)amino)-3-oxo-2,3-dihydro-1H-pyrazolo[4,3-c]pyridin-1-yl)-2-(trifluoromethyl)benzonitrile] | > 5.00 | > 5.00
15 | COc1cccc(-n2[nH]c(=O)c3cnc(Nc4ccnc(OC)n4)cc32)c1 [Compound I-48, 1-(3-methoxyphenyl)-6-((2-methoxypyrimidin-4-yl)amino)-1,2-dihydro-3H-pyrazolo[4,3-c]pyridin-3-one] | < 4.05 | < 4.05
16 | O=c1[nH]n(-c2cccc(F)c2)c2cc(Nc3ccc(F)cn3)ncc12 [Compound I-60, 1-(3-fluorophenyl)-6-((5-fluoropyridin-2-yl)amino)-1,2-dihydro-3H-pyrazolo[4,3-c]pyridin-3-one] | > 5.00 | < 4.05
17 | COc1cccc(-n2[nH]c(=O)c3cnc(Nc4cccnn4)cc32)c1 [Compound I-52, 1-(3-methoxyphenyl)-6-(pyridazin-3-ylamino)-1,2-dihydro-3H-pyrazolo[4,3-c]pyridin-3-one] | > 5.00 | > 5.00
18 | Cc1cc(Nc2cc3c(cn2)c(=O)[nH]n3-c2cccc(C(=O)NCc3ccccn3)c2)nc(C)n1 [Compound I-118, 3-(6-((2,6-dimethylpyrimidin-4-yl)amino)-3-oxo-2,3-dihydro-1H-pyrazolo[4,3-c]pyridin-1-yl)-N-(pyridin-2-ylmethyl)benzamide] | < 4.05 | > 5.00
19 | COc1cc(-n2[nH]c(=O)c3cnc(Nc4ccc(F)cn4)cc32)ccc1F [Compound I-77, 1-(4-fluoro-3-methoxyphenyl)-6-((5-fluoropyridin-2-yl)amino)-1,2-dihydro-3H-pyrazolo[4,3-c]pyridin-3-one] | > 5.00 | > 5.00
20 | Cc1cc(Nc2cc3c(cn2)c(=O)[nH]n3C2CCCC2)nc(C)n1 [Compound I-114, 1-cyclopentyl-6-((2,6-dimethylpyrimidin-4-yl)amino)-1,2-dihydro-3H-pyrazolo[4,3-c]pyridin-3-one] | > 5.00 | > 5.00
21 | Cn1cc2ccc(-n3[nH]c(=O)c4cnc(Nc5ccc(F)cn5)cc43)cc2n1 [Compound I-122, 6-((5-fluoropyridin-2-yl)amino)-1-(2-methyl-2H-indazol-6-yl)-1,2-dihydro-3H-pyrazolo[4,3-c]pyridin-3-one] | > 5.00 | > 5.00
22 | CCc1ccccc1-n1[nH]c(=O)c2cnc(NC(=O)C3CC3)cc21 [Compound I-110, N-(1-(2-ethylphenyl)-3-oxo-2,3-dihydro-1H-pyrazolo[4,3-c]pyridin-6-yl)cyclopropanecarboxamide] | < 4.05 | < 4.05
23 | COc1cc(-n2[nH]c(=O)c3cnc(Nc4cc(C)nc(C)n4)cc32)ccc1C#N [Compound I-80, 4-(6-((2,6-dimethylpyrimidin-4-yl)amino)-3-oxo-2,3-dihydro-1H-pyrazolo[4,3-c]pyridin-1-yl)-2-methoxybenzonitrile] | < 4.05 | > 5.00
24 | COc1c(F)cccc1-n1[nH]c(=O)c2cnc(Nc3ccc(F)cn3)cc21 [Compound I-100, 1-(3-fluoro-2-methoxyphenyl)-6-((5-fluoropyridin-2-yl)amino)-1,2-dihydro-3H-pyrazolo[4,3-c]pyridin-3-one] | < 4.05 | < 4.05
25 | Cc1cc(Nc2cc3c(cn2)c(=O)[nH]n3-c2cccc(-c3ncn(C)n3)c2)nc(C)n1 [Compound I-23, 6-((2,6-dimethylpyrimidin-4-yl)amino)-1-(3-(1-methyl-1H-1,2,4-triazol-3-yl)phenyl)-1,2-dihydro-3H-pyrazolo[4,3-c]pyridin-3-one] | 4.52 to 5.00 | > 5.00
26 | Cc1cc(Nc2cc3c(cn2)c(=O)[nH]n3-c2ccc(C#N)c(F)c2)nc(C)n1 [Compound I-90, 4-(6-((2,6-dimethylpyrimidin-4-yl)amino)-3-oxo-2,3-dihydro-1H-pyrazolo[4,3-c]pyridin-1-yl)-2-fluorobenzonitrile] | > 5.00 | > 5.00
27 | COc1ccccc1-n1[nH]c(=O)c2cnc(NC(=O)C3CC3)cc21 [Compound I-15, N-(1-(2-methoxyphenyl)-3-oxo-2,3-dihydro-1H-pyrazolo[4,3-c]pyridin-6-yl)cyclopropanecarboxamide] | 4.05 to 4.52 | 4.52 to 5.00
28 | COc1ccc(Nc2cc3c(cn2)c(=O)[nH]n3-c2cccc(OC)c2)nc1 [Compound I-41, 1-(3-methoxyphenyl)-6-((5-methoxypyridin-2-yl)amino)-1,2-dihydro-3H-pyrazolo[4,3-c]pyridin-3-one] | > 5.00 | > 5.00
29 | Cc1cc(Nc2cc3c(cn2)c(=O)[nH]n3-c2cccc(C(F)(F)F)c2)nc(C)n1 [Compound I-57, 6-((2,6-dimethylpyrimidin-4-yl)amino)-1-(3-(trifluoromethyl)phenyl)-1,2-dihydro-3H-pyrazolo[4,3-c]pyridin-3-one] | > 5.00 | > 5.00
